In patent US10544129B2, “Crystalline forms of AP26113, and preparation method thereof” (Crystal Pharmatech Co., Ltd., priority 2016, dated 2020):
In brackets after ≈: the same amount, converted by molar mass. Like-named read-outs stand apart in the source and are kept apart here.

Legend:
Format in all cases: physicochemical
[1] = Dissolution study (intrinsic dissolution rate, rotating disk); conditions: for Cumulative dissolution: phosphate buffer pH 6.8, 37° C.; for intrinsic dissolution rate: linear fit of cumulative dissolution with time, phosphate buffer pH 6.8
Experimental: The dissolution data were collected on an Agilent 708-DS.
100 mg of Form CS2 and Form A were added into the die of intrinsic dissolution rate (IDR) tooling, and then compressed at 12 KN for 1 min.
Dissolution medium: phosphate buffer (pH 6.8)
Dissolution method: rotating disk
Revolving speed: 1000 rpm
Medium temperature: 37° C.

[2] = Solubility study in H2O (saturated solutions, HPLC)
Experimental: Samples of Form CS1 of this present disclosure and Form A were suspended in H2O to get saturated solutions. After equilibrated for 1 h and 4 hours, the concentrations of the saturated solutions were measured by high performance liquid chromatography (HPLC).

[3] = Particle size study
Experimental: Particle size distribution of Forms CS1 and Form CS2 of the present disclosure and Form A of the prior art are tested. The average particle size of Form A is 12.58 μm, which is too small to be isolated effectively in the crystallization process. The Average particle sizes of Forms CS1 and Form CS2 are 175.0 μm and 151.9 μm, which are much larger than that of Form A. Compared with Form A, Form CS1 and Form CS2 with large particle size have less electrostatic attraction and can be separated more easily during the crystallization process. Moreover, the mixing non uniformity in the preparation process can be avoided, the quality of the drug is more controllable. At the same time, the crystal growth of the large particle size crystals is more perfect, and the adsorption of the solvent or the impurity on the crystals can be avoided, which is more helpful for purification.

[4] = Solubility study in FaSSIF and SGF (saturated solutions, HPLC); conditions: for solubility at 1 h / solubility at 4 h: thermodynamic from solid
Experimental: Samples of Form CS2 of the present disclosure and Form A were suspended in FaSSIF (Fasted state simulated intestinal fluids) and SGF (Simulated gastric fluids) to get saturated solutions. The concentrations of the saturated solutions were measured by high performance liquid chromatography (HPLC) at fixed time points.

[5] = Stability study at 25° C./60% RH (XRPD, purity); conditions: one month and three months
Experimental: Approximately 10 mg of Form CS2 were stored in a temperature and humidity controlled chamber at 25° C./60% RH, and samples were taken for XRPD at the beginning and after stored for one month and three months. The results are as depicted in FIG. 13.

COc1cc(N2CCC(N3CCN(C)CC3)CC2)ccc1Nc1ncc(Cl)c(Nc2ccccc2P(C)(C)=O)n1 [Form A, AP26113]
Cumulative dissolution ([1]; 10 min): 0.6 mg
Cumulative dissolution ([1]; 15 min): 0.9 mg
Cumulative dissolution ([1]; 20 min): 1.1 mg
Cumulative dissolution ([1]; 25 min): 1.4 mg
Cumulative dissolution ([1]; 30 min): 1.6 mg
intrinsic dissolution rate [1]: 0.052 mg/min
Solubility H2O ([2]; 1 h): 61 µg/mL (≈ 0.104 mM)
Solubility H2O ([2]; 4 h): 67 µg/mL (≈ 0.115 mM)
solubility in water (in words) ([2]; water): poor
average particle size [3]: 12.58 μm
Solubility FaSSIF ([4]; FaSSIF, 1 h): 6900 µg/mL (≈ 11.8 mM)
Solubility FaSSIF ([4]; FaSSIF, 4 h): 7200 µg/mL (≈ 12.3 mM)
solubility in SGF (in words) ([4]; SGF): good solubility
Solubility SGF ([4]; SGF, 1 h): 10900 µg/mL (≈ 18.7 mM)
Solubility SGF ([4]; SGF, 4 h): 10900 µg/mL (≈ 18.7 mM)

COc1cc(N2CCC(N3CCN(C)CC3)CC2)ccc1Nc1ncc(Cl)c(Nc2ccccc2P(C)(C)=O)n1 [Form CS1, AP26113]
Solubility H2O ([2]; 1 h): 1000 µg/mL (≈ 1.71 mM)
Solubility H2O ([2]; 4 h): 610 µg/mL (≈ 1.04 mM)
solubility in water, times higher than that of Form A ([2]; water, relative to Form A): 16 times
average particle size [3]: 175.0 μm

COc1cc(N2CCC(N3CCN(C)CC3)CC2)ccc1Nc1ncc(Cl)c(Nc2ccccc2P(C)(C)=O)n1 [Form CS2, AP26113]
purity after storage ([5]; beginning): above 99%
crystalline form after storage (XRPD) [5]: doesn't change
Cumulative dissolution ([1]; 10 min): 6.4 mg
Cumulative dissolution ([1]; 15 min): 8.0 mg
Cumulative dissolution ([1]; 20 min): 9.4 mg
Cumulative dissolution ([1]; 25 min): 10.7 mg
Cumulative dissolution ([1]; 30 min): 11.8 mg
intrinsic dissolution rate [1]: 0.268 mg/min
dissolution rate, times higher than that of Form A ([1]; relative to Form A): 5 times
average particle size [3]: 151.9 μm
solubility higher than that of Form A ([4]; FaSSIF, one hour, relative to Form A): 43%
solubility at 1 h ([4]; FaSSIF, FaSSIF, 1 h, read-out: Solubility FaSSIF): 9900 µg/mL (≈ 16.9 mM)
solubility at 4 h ([4]; FaSSIF, FaSSIF, 4 h, read-out: Solubility FaSSIF): 9600 µg/mL (≈ 16.4 mM)
solubility in SGF (in words) ([4]; SGF): good solubility
solubility at 1 h ([4]; SGF, simulated gastric fluid, SGF, 1 h, read-out: Solubility SGF): 11200 µg/mL (≈ 19.2 mM)
solubility at 4 h ([4]; SGF, simulated gastric fluid, SGF, 4 h, read-out: Solubility SGF): 12100 µg/mL (≈ 20.7 mM)
